Target: T1, KIT D816H (Homo sapiens, UniProt P10721, D816H)
T1 construct: purchased Thermo Fisher Scientific (Life Technologies) SelectScreen
Assay: SelectScreen LanthaScreen
Type: binding
Conditions: read-out: % displacement
How it was run: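 NU5455 was profiled across the SelectScreen Broad panel of kinase activity and binding assays. Z'LYTE reactions such as CSF1R ran at apparent Km ATP, while the Adapta CAMK1 assay used ATP listed as 10. Values are given as percent.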

T1 sequence (P10721 26-976 D816H): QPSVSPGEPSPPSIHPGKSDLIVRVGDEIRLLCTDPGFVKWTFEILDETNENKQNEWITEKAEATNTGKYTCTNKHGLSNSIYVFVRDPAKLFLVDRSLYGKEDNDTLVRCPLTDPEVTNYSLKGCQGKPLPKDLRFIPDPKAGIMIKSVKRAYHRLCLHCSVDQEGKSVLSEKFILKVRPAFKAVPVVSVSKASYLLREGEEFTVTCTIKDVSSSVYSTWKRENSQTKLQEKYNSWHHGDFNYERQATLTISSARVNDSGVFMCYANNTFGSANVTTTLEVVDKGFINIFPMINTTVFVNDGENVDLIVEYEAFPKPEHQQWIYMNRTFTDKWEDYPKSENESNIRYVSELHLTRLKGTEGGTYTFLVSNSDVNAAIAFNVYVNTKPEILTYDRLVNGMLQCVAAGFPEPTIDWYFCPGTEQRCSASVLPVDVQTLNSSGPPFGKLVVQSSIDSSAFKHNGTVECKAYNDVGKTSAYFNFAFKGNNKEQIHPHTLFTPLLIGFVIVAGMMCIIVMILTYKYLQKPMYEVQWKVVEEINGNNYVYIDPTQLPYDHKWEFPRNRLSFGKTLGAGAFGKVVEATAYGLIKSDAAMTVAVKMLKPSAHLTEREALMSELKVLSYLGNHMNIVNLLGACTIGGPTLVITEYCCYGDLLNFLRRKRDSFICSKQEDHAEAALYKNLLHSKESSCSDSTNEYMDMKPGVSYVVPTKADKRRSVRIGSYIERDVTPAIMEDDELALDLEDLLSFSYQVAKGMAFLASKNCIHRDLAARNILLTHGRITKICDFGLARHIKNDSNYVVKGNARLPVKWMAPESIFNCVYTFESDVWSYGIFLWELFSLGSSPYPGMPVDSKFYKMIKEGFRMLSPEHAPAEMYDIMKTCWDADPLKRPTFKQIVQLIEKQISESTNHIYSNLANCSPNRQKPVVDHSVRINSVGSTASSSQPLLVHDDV

## CN(C(=O)CN1CCOCC1)c1ccc2sc3c(-c4cccc5c(=O)cc(N6CC7CCC(C6)O7)oc45)cccc3c2c1 [NU5455]
  inhibition at 1 µM: -0.2%
